Ten compounds from patent publication US20260049072A1, “HETEROCYCLIC COMPOUND FOR INDUCING DEGRADATION OF MUTANT KRAS PROTEIN” (Astellas Pharma Inc., priority 2022, published 2026) can be followed below.

One experiment deals with T1, RAS G12D (Homo sapiens, UniProt P01116, G12D).
T1 construct: host or cells: AsPC-1 human pancreatic cancer cells
Description: RAS G12D degradation activity, Cell ELISA, AsPC-1. The following applies: AsPC-1 cells, 24 hours; read-out: DC50 (RAS G12D 50% degradation value). It counts as cell-based. Here is the method:
Test Example 1-2: Evaluation of RAS G12D Degradation Activity on Human KRAS G12D Mutant-Positive Pancreatic Cancer Line AsPC-1
The RAS G12D degradation activities of subject compounds were evaluated in the same manner as in Test Example 1-1 by measuring the expression levels of RAS G12D by a Cell ELISA method.
AsPC-1 cells (ATCC, CRL-1682) were seeded at 36 μL per well on a 384-well plate to give 2.0×10^4 cells per well. As for the cell culture conditions, RPMI-1640 medium (from Sigma-Aldrich) containing 10% fetal bovine serum was used in the presence of 5% CO2 at 37° C.
The next day, the subject compounds (10 points having final concentrations in the range of 3 μM to 0.1 nM) and DMSO, which was the solvent for the subject compounds, as a negative control were diluted 100-fold with a fresh medium and were each added at 4 μL per well, followed by culturing for 24 hours.
The next day, the procedures from the immobilization of the cells to before the addition of the blocking solution were performed by the same methods as in Test Example 1-1. A blocking solution (Intercept Blocking Buffer; from LI-COR Biosciences) was added at 20 μL per well. After allowing the plate to stand for 30 minutes at room temperature, the supernatant was removed by centrifugation. A solution obtained by diluting an anti-R-actin antibody (1,000-fold dilution) with the blocking solution was added to the wells of the positive control as a primary antibody, and a solution obtained by diluting an anti-Ras (G12D Mutant Specific) antibody (Ras (G12D Mutant Specific) (D8H7) Rabbit mAb; from Cell Signaling Technology; 1,000-fold dilution) and an anti-3-actin antibody (1,000-fold dilution) with the blocking solution was added to the other wells as primary antibodies, each at 15 μL per well. The plate was allowed to stand overnight at 4° C.
The next day, the supernatant was removed by centrifugation, and the plate was washed with PBS. The supernatant was removed by centrifugation, and a solution obtained by diluting an anti-rabbit IgG antibody and an anti-mouse IgG antibody 1,000-fold with the blocking solution was added at 15 μL per well as secondary antibodies. After allowing the plate to stand at room temperature for an hour, the supernatant was removed by centrifugation, and the plate was washed with PBS. After removing the supernatant, the plate was dried as it was with air at room temperature for two hours or more, and the 700-nm and 800-nm fluorescent signals were measured with Aerius.
With the RAS G12D signaling value at the time of addition of DMSO corrected with the signaling value of β-actin taken as 0% and with the RAS G12D signaling value under the conditions of staining with the anti-β-actin antibody alone taken as 100%, the RAS G12D degradation rates were calculated. The 50% degradation values (DC50) were calculated by Sigmoid-Emax model nonlinear regression analysis.
Background: In an ELISA, binding on a coated surface is turned into a signal by an enzyme label.

The next experiment concerns MIA PaCa-2 cells. Briefly: Non-anchorage-dependent cell growth inhibition (spheroid 3D culture), MIA PaCa-2. The following applies: Homo sapiens, MIA PaCa-2, 144 h; KRAS G12C mutant-positive, 3D spheroid, six days, CellTiter-Glo 2.0; read-out: MIA PaCa-2 IC50. It is filed as cell-based. The method, then:
Test Example 3: Evaluation of Non-Anchorage-Dependent Cell Growth Inhibitory Activity on Human KRAS G12V Mutant-Positive Pancreatic Cancer Line PA-TU-8902, Human KRAS G12D Mutant-Positive Pancreatic Cancer Line AsPC-1 or Human KRAS G12C Mutant-Positive Pancreatic Cancer Line MIA PaCa-2
The non-anchorage-dependent cell growth inhibitory activities of subject compounds were evaluated by spheroid 3D cell culture.
PA-TU-8902 cells, AsPC-1 cells or MIA PaCa-2 cells (RIKEN BRC, RCB2094) were seeded at 36 µL/well on a low-cell-adhesive round bottom 384-well plate (Prime Surface: from Sumitomo Bakelite) to give 5×10^2 cells per well. The PA-TU-8902 cells were under the same conditions as in Test Example 1-1, and the AsPC-1 cells were under the same conditions as in Test Example 1-2. For the MIA PaCa-2 cells, RPMI-1640 medium containing 10% fetal bovine serum was used in the presence of 5% CO2 at 37° C.
The next day, the subject compounds (6-9 points having final concentrations in the range of 3 μM to 0.3 nM) and DMSO, which was the solvent for the subject compounds, as a negative control were diluted 100-fold with a fresh medium and were each added at 4 μL per well. After culturing in the presence of 5% CO2 at 37° C. for six days, CellTiter-Glo 2.0 (from Promega) was added at 20 μL per well. After stirring with a plate mixer (from FINEPCR) at normal temperature for an hour, the luminescent signals were measured with ARVO X3 (from PerkinElmer).
With the signaling value in treatment with DMSO taken as 0% inhibition and with the signaling value in the medium alone without cells taken as 100% inhibition, the 50% inhibition values (IC50) were calculated by Sigmoid-Emax model nonlinear regression analysis.

T1 sequence (P01116 1-188 isoform P01116-2 G12D): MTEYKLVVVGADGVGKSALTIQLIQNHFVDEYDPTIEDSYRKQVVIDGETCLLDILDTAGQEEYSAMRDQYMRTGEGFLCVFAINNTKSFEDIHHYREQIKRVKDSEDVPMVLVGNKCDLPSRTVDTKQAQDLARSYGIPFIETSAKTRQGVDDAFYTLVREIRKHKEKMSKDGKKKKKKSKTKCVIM

In the case of `COC(C)(C)COc1cc(OC2CN(C(=O)N3CC(CN(C)C)C3)C2)c2cc(C3CC3)c(-c3c(C)c(F)cc4[nH]ncc34)c(OCc3ccc(-c4cn([C@H](C(=O)N5C[C@H](O)C[C@H]5C(=O)N[C@@H](CO)c5ccc(-n6cncn6)cc5)C(C)C)nn4)cc3)c2n1` (atropisomer, axis not shown) [Example 9], the DC50 at RAS G12D was 5 nM. Besides, the IC50 in the experiment on MIA PaCa-2 cells is 9 nM.

Take `CO[C@@H](C)COc1nc(N(C)[C@H]2CCN(C(=O)NCCN(C)C)C2)c2cc(C3CC3)c(-c3c(C)c(F)cc4[nH]ncc34)c(OCc3ccc(-c4cn([C@H](C(=O)N5C[C@H](O)C[C@H]5C(=O)N[C@@H](CO)c5ccc(-c6scnc6C)cc5)C(C)C)nn4)cc3)c2n1` (atropisomer, axis not shown) [Example 19]: at RAS G12D, the DC50 was 4 nM. Also, the IC50 in the experiment with MIA PaCa-2 cells is 27 nM.

For `CO[C@@H](C)COc1nc(N[C@H]2C[C@H](OCCN(C)C)C2)c2cc(C3CC3)c(-c3c(C)c(F)cc4[nH]ncc34)c(OCc3ccc(-c4cn([C@H](C(=O)N5C[C@H](O)C[C@H]5C(=O)N[C@@H](CO)c5ccc(-c6scnc6C)cc5)C(C)C)nn4)cc3)c2n1` (atropisomer, axis not shown) [Example 23], the DC50 at RAS G12D was found to be 1 nM. In the experiment on MIA PaCa-2 cells, the half-maximal inhibitory concentration (IC50) is 17 nM.

On to `CO[C@@H](C)COc1cc(OC2CN(C(=O)N3CC(CN(C)C)C3)C2)c2cc(C3CC3)c(-c3c(C)c(F)cc4[nH]ncc34)c(OCc3ccc(-c4cn([C@H](C(=O)N5C[C@H](O)C[C@H]5C(=O)N[C@@H](CO)c5ccc(-n6cncn6)cc5)C(C)C)nn4)cc3)c2n1` (atropisomer, axis not shown; (M)) [Example 5, (4R)-1-[(2S)-2-(4-{4-[({(7M)-6-cyclopropyl-4-[(1-{3-[(dimethylamino)methyl]azetidine-1-carbonyl}azetidin-3-yl)oxy]-7-(6-fluoro-5-methyl-1H-indazol-4-yl)-2-[(2S)-2-methoxypropoxy]quinolin-8-yl}oxy)methyl]phenyl}-1H-1,2,3-triazol-1-yl)-3-methylbutanoyl]-4-hydroxy-N-{(1R)-2-hydroxy-1-[4-(1H-1,2,4-triazol-1-yl)phenyl]ethyl}-L-prolinamide], for which, on RAS G12D, the DC50 worked out at 6 nM. In addition, the IC50 in the experiment on MIA PaCa-2 cells was found to be 5 nM.

With `CO[C@@H](C)COc1nc(NC2CN(C(=S)N3CC(CN(C)C)C3)C2)c2cc(C3CC3)c(-c3c(C)c(F)cc4[nH]ncc34)c(OCc3ccc(-c4cn([C@H](C(=O)N5C[C@H](O)C[C@H]5C(=O)N[C@@H](CO)c5ccc(-n6cncn6)cc5)C(C)C)nn4)cc3)c2n1` (atropisomer, axis not shown) [Example 26], the DC50 at RAS G12D was determined as 6 nM. In addition, the IC50 with MIA PaCa-2 cells came to 7 nM.

In the case of `CO[C@@H](C)COc1cc(OC2CN(C(=O)O[C@H]3C[C@@H](N(C)C)C3)C2)c2cc(C3CC3)c(-c3c(C)c(F)cc4[nH]ncc34)c(OCc3ccc(-c4cn([C@H](C(=O)N5C[C@H](O)C[C@H]5C(=O)N[C@@H](CO)c5ccc(-n6cncn6)cc5)C(C)C)nn4)cc3)c2n1` (atropisomer, axis not shown; (M)) [Example 13, (1s,3R)-3-(dimethylamino)cyclobutyl 3-({(7M)-6-cyclopropyl-7-(6-fluoro-5-methyl-1H-indazol-4-yl)-8-{[4-(1-{(2S)-1-[(2S,4R)-4-hydroxy-2-({(1R)-2-hydroxy-1-[4-(1H-1,2,4-triazol-1-yl)phenyl]ethyl}carbamoyl)pyrrolidin-1-yl]-3-methyl-1-oxobutan-2-yl}-1H-1,2,3-triazol-4-yl)phenyl]methoxy}-2-[(2S)-2-methoxypropoxy]quinolin-4-yl}oxy)azetidine-1-carboxylate], the 50% degradation concentration (DC50) on RAS G12D came to 6 nM. Further, the IC50 in the experiment with MIA PaCa-2 cells amounted to 13 nM.

As for `CO[C@@H](C)COc1nc(NC2CN(C(=O)N3CC(CN(C)C)C3)C2)c2cc(C3CC3)c(-c3c(C)c(F)cc4[nH]ncc34)c(OCc3ccc(-c4cn([C@H](C(=O)N5C[C@H](O)C[C@H]5C(=O)N[C@@H](CO)c5ccc(-c6scnc6C)cc5)C(C)C)nn4)cc3)c2n1` (atropisomer, axis not shown) [Example 25], the DC50 on RAS G12D stood at 3 nM. In the experiment with MIA PaCa-2 cells, the IC50 amounted to 16 nM.

Consider `CO[C@@H](C)COc1nc(NC2CN(C(=O)O[C@H]3C[C@@H](N(C)C)C3)C2)c2cc(C3CC3)c(-c3c(C)c(F)cc4[nH]ncc34)c(OCc3ccc(-c4cn([C@H](C(=O)N5C[C@H](O)C[C@H]5C(=O)N[C@@H](CO)c5ccc(-c6ocnc6C)cc5)C(C)C)nn4)cc3)c2n1` (atropisomer, axis not shown; (M)) [Example 1, (1s,3R)-3-(dimethylamino)cyclobutyl 3-({(7M)-6-cyclopropyl-7-(6-fluoro-5-methyl-1H-indazol-4-yl)-8-{[4-(1-{(2S)-1-[(2S,4R)-4-hydroxy-2-({(1R)-2-hydroxy-1-[4-(4-methyl-1,3-oxazol-5-yl)phenyl]ethyl}carbamoyl)pyrrolidin-1-yl]-3-methyl-1-oxobutan-2-yl}-1H-1,2,3-triazol-4-yl)phenyl]methoxy}-2-[(2S)-2-methoxypropoxy]quinazolin-4-yl}amino)azetidine-1-carboxylate], for which the DC50 on RAS G12D amounted to 5 nM. In addition, the concentration for half-maximal inhibition (IC50) in the experiment with MIA PaCa-2 cells came to 11 nM.

Turning to `CO[C@@H](C)COc1cc(OC2CN(C(=O)NCCN(C)C)C2)c2cc(C3CC3)c(-c3c(C)c(F)cc4[nH]ncc34)c(OCc3ccc(-c4cn([C@H](C(=O)N5C[C@H](O)C[C@H]5C(=O)N[C@@H](CO)c5ccc(-n6cncn6)cc5)C(C)C)nn4)cc3)c2n1` (atropisomer, axis not shown; (M)) [Example 12, (4R)-1-[(2S)-2-(4-{4-[({(7M)-6-cyclopropyl-4-[(1-{[2-(dimethylamino)ethyl]carbamoyl}azetidin-3-yl)oxy]-7-(6-fluoro-5-methyl-1H-indazol-4-yl)-2-[(2S)-2-methoxypropoxy]quinolin-8-yl}oxy)methyl]phenyl}-1H-1,2,3-triazol-1-yl)-3-methylbutanoyl]-4-hydroxy-N-{(1R)-2-hydroxy-1-[4-(1H-1,2,4-triazol-1-yl)phenyl]ethyl}-L-prolinamide], the 50% degradation concentration (DC50) at RAS G12D is 3 nM. Further, in the experiment on MIA PaCa-2 cells, the IC50 was found to be 20 nM.

Turning to `Cc1ncsc1-c1ccc([C@H](CO)NC(=O)[C@@H]2C[C@@H](O)CN2C(=O)[C@H](C(C)C)n2cc(-c3ccc(COc4c(-c5c(C)c(F)cc6[nH]ncc56)c(C5CC5)cc5c(NC6CN(c7ncccn7)C6)nc(OC6CCOCC6)nc45)cc3)nn2)cc1` [Example 15, (4R)-1-[(2S)-2-{4-[4-({[(7M)-6-cyclopropyl-7-(6-fluoro-5-methyl-1H-indazol-4-yl)-2-[(oxan-4-yl)oxy]-4-{[1-(pyrimidin-2-yl)azetidin-3-yl]amino}quinazolin-8-yl]oxy}methyl)phenyl]-1H-1,2,3-triazol-1-yl}-3-methylbutanoyl]-4-hydroxy-N-{(1R)-2-hydroxy-1-[4-(4-methyl-1,3-thiazol-5-yl)phenyl]ethyl}-L-prolinamide], the DC50 on RAS G12D turned out to be 146 nM. In addition, in the experiment on MIA PaCa-2 cells, the IC50 was 6 nM.

The term DC50 denotes the midpoint of the concentration-degradation curve. A word on the IC50: it is the concentration at which inhibition is half-maximal.
